Assay results reported in patent US8633212B2, “Inhibitors of beta-secretase” (Vitae Pharmaceuticals, Inc., priority 2009, dated 2014).
Where two headings read alike, the source gives them in different places.

How the values were obtained:
[1] = molecular target: truncated human beta-secretase (residues 1-458, His6-tagged at the C-terminus) (Homo sapiens (Human), UniProt P56817); experiment: BACE enzyme assay (fluorescence quench assay, Example 434A); assay type: biochemical
[2] = molecular target: H4 neuroglioma cell line stably expressing APP with the KM-NL Swedish mutation (H4-APPsw); soluble Amyloid Beta 1-40 (Aβ 1-40) (Homo sapiens (Human), UniProt P56817); experiment: BACE cell assay: soluble Aβ 1-40 in culture media of H4-APPsw cells (AlphaLISA/ELISA); assay type: cell-based; conditions: in vitro cell activity; H4-APPsw cells treated overnight, secreted Aβ 1-40 in culture media
Protocol: H4 neuroglioma cell line that stably expresses Amyloid Precursor Protein (APP) containing the KM-NL Swedish mutation (H4-APPsw) was generated. For the assay, cells are treated overnight in the presence of inhibitor and the culture media are subjected to ELISA analysis of soluble Amyloid Beta 1-40 (Aβ 1-40).
Generation and Maintenance of H4-APPsw Cell Line
H4 neuroglioma cell line was cultured in DMEM with 10% FBS and 1% penicillin/streptomycin (Culture Medium) at 37° C., 5% CO2. […] 24 hrs after transfection, the cells were replaced into three new plates (150 mm) in fresh Culture Medium with 250 ug/mL Zeocin. […] The levels of APPsw expression were analyzed by immunoblotting and the production of Aβ 1-40 was detected by ELISA of culture supernatants. The selected clones are maintained in Culture Medium with 250 μg/mL Zeocin and routinely split in 3-4 days to maintain 20-80% confluence.
Final Assay Conditions (96-Well Plate)
Split H4-APPsw cells in Culture Medium and culture overnight such that cells will be ˜80% confluent next morning.
Create Compound Dilution Plate.
After determining the desired final concentration of compound to be tested, create a 500× dilution plate. Add DMSO, but not inhibitor, to each well of Column 1. […] Add compounds of interest at 500× desired final concentration to wells A3-A10. […] Dilute contents of Row A 1:3 in Row B, then continue through Rows C-H.
Add 4 μL 5 mM control compound to Media Plate wells A1-D1 for determination of full inhibition.
With a multichannel pipettor, mix each well of Media Plate several times to insure homogeneity. […] Next, place Medium Plate and Cell Plate in the incubator.
Trypsinize and count H4-APPsw cells. Dilute cells 6×10^5 cells/mL in Culture Medium and remove Cell Plate from incubator. Vortex cells to homogeneity, then using a multichannel repeating pipettor, add 100 μL cell suspension to Cell Plate, adding cells from Row H to Row A. Place Cell Plate in incubator.
Change media in Cell Plate.
After 5 h, check Cell Plate by microscope to insure cells are attached. In culture hood, remove media from Cell Plate using multichannel repeating pipettor. Add 100 μl Culture Medium to each well. Remove Media Plate from incubator and mix with pipettor as previous. Add 100 μl from each well of Media Plate to corresponding well in Cell Plate. Place Cell Plate in incubator overnight.
Perform ELISA to determine levels of secreted Aβ 1-40.
After 16 h incubation, spin Cell Plate for 8 min at 1200 rpm. The primary reading of Aβ 1-40 levels is done using PerkinElmer AlphaLISA technology. Follow the manufacturer's protocol for performing AlphaLISA in a white ½ area Optiwell plate using Row 12 for peptide standard (1:2 dilutions, starting at 15 ng/ml). Data are acquired using PerkinElmer Fusion-Alpha FP-HT, Alpha protocol (Count Time 0.6s, Count Time Ratio 30%:70%).
Export data from Fusion using Columnar Report format into a separate file for each plate. Upload data into Activity Base using RIA-DOSE-RESPONSE protocol (Version 1). Data from at least eight doses were fitted to a four parameter logistical model using XLfit software to determine potency.

[3] = footnote a: protocols described in Example 434A, read-out: IC50

H4 neuroglioma cell line stably expressing APP with the KM-NL Swedish mutation (H4-APPsw); soluble Amyloid Beta 1-40 (Aβ 1-40), sequence (P56817 46-501 limits assumed, change not shown): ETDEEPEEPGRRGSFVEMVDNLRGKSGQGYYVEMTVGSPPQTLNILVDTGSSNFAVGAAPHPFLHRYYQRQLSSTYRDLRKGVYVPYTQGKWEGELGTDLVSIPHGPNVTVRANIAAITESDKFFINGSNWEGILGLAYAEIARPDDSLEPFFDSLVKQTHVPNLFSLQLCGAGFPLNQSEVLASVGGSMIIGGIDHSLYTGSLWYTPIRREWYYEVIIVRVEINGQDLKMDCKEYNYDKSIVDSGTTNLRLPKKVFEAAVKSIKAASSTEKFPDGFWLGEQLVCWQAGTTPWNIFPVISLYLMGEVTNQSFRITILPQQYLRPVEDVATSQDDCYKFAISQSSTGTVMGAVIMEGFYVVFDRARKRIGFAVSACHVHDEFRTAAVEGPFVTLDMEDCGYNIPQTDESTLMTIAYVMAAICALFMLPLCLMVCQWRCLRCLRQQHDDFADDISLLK
truncated human beta-secretase (residues 1-458, His6-tagged at the C-terminus), sequence (P56817 22-458): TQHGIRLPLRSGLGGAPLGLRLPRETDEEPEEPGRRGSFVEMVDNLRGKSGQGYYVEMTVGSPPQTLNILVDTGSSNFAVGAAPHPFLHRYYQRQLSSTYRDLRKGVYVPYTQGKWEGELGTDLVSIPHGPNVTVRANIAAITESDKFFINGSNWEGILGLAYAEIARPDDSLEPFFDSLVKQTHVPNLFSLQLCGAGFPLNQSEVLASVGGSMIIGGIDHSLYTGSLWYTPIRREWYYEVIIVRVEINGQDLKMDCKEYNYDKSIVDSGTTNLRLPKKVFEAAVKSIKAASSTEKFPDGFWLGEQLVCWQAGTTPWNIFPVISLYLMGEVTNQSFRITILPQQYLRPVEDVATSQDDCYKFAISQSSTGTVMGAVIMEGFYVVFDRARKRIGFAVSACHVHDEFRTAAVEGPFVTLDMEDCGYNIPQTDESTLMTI

Structure (SMILES) | IC50 [1, 3] | other results
COC1CCC2(CC1)Cc1ccc(-c3cc(F)cc(Cl)c3)cc1C21N=C(N)N(C)O1 (centres unmarked) [Compound 1] | 0.0026 µM | IC50 [2]: < 0.1 µM
COC1CCC2(CC1)Cc1ccc(C#CC3CC3)cc1C21N=C(N)N(C)O1 (centres unmarked) [Compound 3] | 0.0045 µM | IC50 [2]: < 0.1 µM
COC1CCC2(CC1)Cc1ccc(-c3cc(C)cc(C)c3)cc1C21N=C(N)N(C)O1 (centres unmarked) [Compound 19] | 0.0146 µM | IC50 [2]: < 0.5 µM
CCOC1CCC2(CC1)Cc1ccc(C#CC3CC3)cc1C21N=C(N)N(C)O1 (centres unmarked) [Compound 24] | 0.021 µM | 
CN1C(=O)C2(N=C1N)c1cc(-c3cc(F)cc(Cl)c3)ccc1CC21CCc2ccccc2CC1 (centres unmarked) [Compound 26] |  | IC50 [2]: < 5 µM
CN1C(=O)C2(N=C1N)c1cc(-c3cccc(C#N)c3)ccc1CC21CCc2ccccc2CC1 (centres unmarked) [Compound 29] |  | IC50 [2]: < 0.5 µM
COC1CCC2(CC1)Cc1ccc(-c3cc(F)ccc3C)cc1C21N=C(N)N(C)O1 (centres unmarked) [Compound 32] | 0.0741 µM | 
CN1OC2(N=C1N)c1ccccc1CC21CCc2ccccc2CC1 (centres unmarked) [Compound 35] |  | IC50 [2]: < 1 µM
COC1CCC2(CC1)Cc1ccc(-c3ccc4cc[nH]c4c3)cc1C21N=C(N)N(C)O1 (centres unmarked) [Compound 37] | 0.126 µM | 
CN1OC2(N=C1N)c1cc(-c3cccc(C#N)c3)ccc1CC21CCOCC1 (centres unmarked) [Compound 51, 3-(spiro[spiro[2,3-dihydro-indene-2,1′-(4-oxacyclohexane)]-1,5′-(3-amino-2-methyl-2H-[1,2,4]oxadiazole)]-6-yl)benzonitrile] | 0.466 µM | 
CN1OC2(N=C1N)c1cc(-c3cccc(C#N)c3)ccc1CC21C=CC(c2ccccc2)C1 (centres unmarked) [Compound 53] |  | IC50 [2]: < 50 µM
CN1C(=O)C2(N=C1N)c1cc(Br)ccc1CC21CCc2ccccc2CC1 (centres unmarked) [Compound 56] |  | IC50 [2]: < 5 µM
CN1OC2(N=C1N)c1cc(-c3cccc(C#N)c3)ccc1CC21Cc2cccc3cccc(c23)C1 (centres unmarked) [Compound 61] | 3.26 µM | 
CO[C@H]1CC2(Cc3ccc(-c4cccc(C#N)c4)cc3C23N=C(N)N(C)O3)C[C@H]1OC (some centres unmarked) [Compound 62] | 4.11 µM | 
CN1OC2(N=C1N)c1cc(-c3cccc(C#N)c3)ccc1CCC21CCc2ccccc2CC1 (centres unmarked) [Compound 63] | 5.05 µM | 
CO[C@H]1CC[C@@]2(CC1)Cc1ccc(-c3cccc(C#N)c3)cc1C21CC(=O)N(C)C(N)=N1 (some centres unmarked) [Compound 65] | 50 µM | 
CN1OC2(N=C1N)c1cc(Br)ccc1OC21CCc2ccccc2CC1 (centres unmarked) [Compound 67] | 0.139 µM | 
COC1CCC2(CC1)Oc1ccc(-c3cccc(C#N)c3)cc1C21N=C(N)N(C)O1 (centres unmarked) [Compound 68] | 1.78 µM | 
CN1OC2(CC3(CCOCC3)c3ccc(-c4cccc(C#N)c4)cc32)N=C1N (centres unmarked) [Compound 69, 3-(spiro[spiro[2,3-dihydro-indene-3,1′-(4-oxacyclohexane)]-1,5′-(3-amino-2-methyl-2H-[1,2,4]oxadiazole)]-6-yl)benzonitrile] | 4.7 µM | 
COC1CCC2(CC1)Cc1ccc(C#CC3CC3)cc1C21N=C(N)N(C)C1=O (centres unmarked) [Compound 76] | 0.0021 µM | 
CCOC1CCC2(CC1)Cc1ccc(-c3cccc(C#N)c3)cc1C21N=C(N)N(C)O1 (centres unmarked) [Compound 82] | 0.432 µM | 
COC1CCC2(CC1)Cc1ccc(Br)cc1C21N=C(N)N(C)O1 (centres unmarked) [Compound 95] | 0.137 µM | 
CN1OC2(N=C1N)c1cc(-c3cccc(C#N)c3)ccc1CC21CCC(NCC(F)(F)F)CC1 (centres unmarked) [Compound 97] | 3.88 µM | 
CN1OC2(N=C1N)c1cc(-c3cccc(C#N)c3)ccc1CC21CCC(NCC(F)(F)F)CC1 (centres unmarked) [Compound 98] | 3.32 µM | 
CN1OC2(N=C1N)c1cc(C#CC3CC3)ccc1CC21CCC(OC(F)F)CC1 (centres unmarked) [Compound 99] |  | IC50 [1]: 0.0024 µM
CN1OC2(N=C1N)c1cc(-c3cccc(C#N)c3)ccc1CC21CCC(OC(F)F)CC1 (centres unmarked) [Compound 100] | 0.0047 µM | 
Cc1ccc2c(c1)C1(N=C(N)N(C)O1)C1(CCc3ccccc3CC1)C2 (centres unmarked) [Compound 104] | 0.255 µM | 

Structure (SMILES) | IC50 [1, 3] | other results
CN1OC2(N=C1N)c1cc(C#CC3CC3)ccc1CC21CCc2ccccc2CC1 (centres unmarked) [Compound 105] | 0.0084 µM | 
COC1CCC2(CC1)Cc1ccc(-c3ccnnc3)cc1C21N=C(N)N(C)O1 (centres unmarked) [Compound 108] | 0.156 µM | 
COC1CCC2(CC1)Cc1ccc(-c3cnccn3)cc1C21N=C(N)N(C)O1 (centres unmarked) [Compound 109] | 0.0236 µM | 
COC1CCC2(CC1)Cc1ccc(OCC3CC3)cc1C21N=C(N)N(C)O1 (centres unmarked) [Compound 110] | 0.0146 µM | 
COc1cncc(-c2ccc3c(c2)C2(N=C(N)N(C)O2)C2(CCC(OC)CC2)C3)n1 (centres unmarked) [Compound 111] | 0.196 µM | 
COC1CCC2(CC1)Cc1ccc(C#Cc3ccccc3)cc1C21N=C(N)N(C)O1 (centres unmarked) [Compound 112] | 0.0804 µM | 
COC1CCC2(CC1)Cc1ccc(C#CC(C)(C)C)cc1C21N=C(N)N(C)O1 (centres unmarked) [Compound 113] | 0.0246 µM | 
COC1CCC2(CC1)Cc1ccc(C#CC3CCCC3)cc1C21N=C(N)N(C)O1 (centres unmarked) [Compound 114] | 0.0097 µM | 
COC1CCC2(CC1)Cc1ccc(C#CC(F)(F)F)cc1C21N=C(N)N(C)O1 (centres unmarked) [Compound 115] | 0.0037 µM | 
COC1CCC2(CC1)Cc1ccc(-c3cncs3)cc1C21N=C(N)N(C)O1 (centres unmarked) [Compound 116] | 0.0767 µM | 
COC1CCC2(CC1)Cc1ccc(CCC3CC3)cc1C21N=C(N)N(C)O1 (centres unmarked) [Compound 117] | 0.0174 µM | 
CN1OC2(N=C1N)c1cc(-c3cccnn3)ccc1CC21CCc2ccccc2CC1 (centres unmarked) [Compound 121] |  | IC50 ([1]; read-out: IC50): 0.0562 µM
CN1OC2(N=C1N)c1cc(-c3ccnnc3)ccc1CC21CCc2ccccc2CC1 (centres unmarked) [Compound 122] | 0.0425 µM | 
CCN1C(=O)C2(N=C1N)c1cc(C#CC3CC3)ccc1CC21CCC(OC)CC1 (centres unmarked) [Compound 138] | 0.0156 µM | 
COC1CCC2(CC1)Cc1ccc(C#CC3CC3)cc1C21N=C(N)N(Cc2ccccc2)C1=O (centres unmarked) [Compound 142] | 0.002 µM | 
CN1C(=O)C2(N=C1N)c1cc(C#CC3CC3)ccc1CC21CCC(O)CC1 (centres unmarked) [Compound 150] | 0.003 µM | 
CN1C(=O)C2(N=C1N)c1cc(C#CC3CC3)ccc1CC21CCC(O)CC1 (centres unmarked) [Compound 151] | 0.207 µM | 
CO[C@H]1CC[C@]2(CC1)Cc1c(F)cccc1C21N=C(N)N(C)C1=O (some centres unmarked) [Compound 249] | 0.493 µM | 
COC1CCC2(CC1)Cc1ccc(C#CC3CC3)cc1C21N=C(N)NC1=O (centres unmarked) [Compound 264] | 0.0292 µM | 
Cc1onc2c1CC1(CC2)Cc2ccc(-c3cccnc3)cc2C12N=C(N)N(C)O2 (centres unmarked) [Compound 451] | 0.0586 µM | 
CN1OC2(N=C1N)c1cc(-c3cccc(C#N)c3)ccc1CC21CCc2cnncc2CC1 (centres unmarked) [Compound 456] | 0.877 µM | 
Cc1onc2c1CC1(CC2)Cc2ccc(C#CC3CC3)cc2C12N=C(N)N(C)C2=O (centres unmarked) [Compound 467] | 0.0028 µM | 
Cc1onc2c1CC1(CC2)Cc2ccc(C#CC3CC3)cc2C12N=C(N)N(C)O2 (centres unmarked) [Compound 468] | 0.0167 µM | 
COC1CCC2(CC1)Cc1ccc(C3=CC(O)CC3)cc1C21N=C(N)N(C)C1=O (centres unmarked) [Compound 476] | 0.0331 µM | 
COC1CCC2(CC1)Cc1ccc(C#CC3CC3)cc1[C@@]21N=C(N)N(C)C1=O (some centres unmarked) [Compound 477] | 0.694 µM | 
COC1CCC2(CC1)Cc1ccc(C#CC3CC3)cc1[C@]21N=C(N)N(C)C1=O (some centres unmarked) [Compound 478] | 0.0022 µM | 
